Patent US12077608B2, “Stapled H2 pyrin peptides” (H. LEE MOFFITT CANCER CENTER AND RESEARCH INSTITUTE, INC., priority 2018, dated 2024)
Like-named read-outs stand apart in the source and are kept apart here. Bridge positions count the residues as written; N and C are the ends. Square brackets hold non-standard residues; d marks the D form. Ends that are not written are not given here. Peptide text beside a SMILES is read from it. * marks the point of attachment. FITC = O=C1OC2(c3ccc(O)cc3Oc3cc(O)ccc32)c2ccc(NC(=S)*)cc21; S5 = C=CCCC[C@](C)(N)C(=O)O; Nle = CCCC[C@H](N)C(=O)O; βAla = NCCC(=O)O

Assays:
[1] = Circular dichroism (CD) secondary structure of the peptides; format: physicochemical; settings: aqueous solution; 100 μM peptide in 10 mM potassium phosphate, 100 mM potassium fluoride buffer (pH=7.5)
Protocol: Circular dichroism (CD) was used to determine the secondary structure of the peptides. […] Hydrocarbon stapling promoted α-helix contents with SAH-POP1-4 and SAH-POP1-8 having the highest in aqueous solution.
CD spectra were recorded on an AVIV Model 215 Circular Dichroism Spectrometer. Each spectrum was collected with the wavelength between 190 to 260 nm, 0.5 nm increments, and 0.5 s averaging time using a 1-mm path length cell. The peptide concentration was 100 μM in 10 mM potassium phosphate and 100 mM potassium fluoride buffer (pH=7.5). The studied peptides were completely dissolved in this buffer. CD spectra were initially plotted as wavelength versus millidgree, the default output of the instrument. Once the precise peptide concentration was confirmed, the mean residue ellipticity [Θ] was calculated for the y-axis.

[2] = test system: caspase-1 activity in Human THP-1 monocytes; assay: Promega Caspase-Glo 1 Inflammasome Assay (cell-based bioluminescent caspase-1 activity assay); settings: for inhibited caspase-1 activities: 5 μM inhibitor, PMA-differentiated THP-1, LPS and nigericin stimulated
Source text: Promega Caspase-Glo™ 1 Inflammasome Assay. A cell-based bioluminescent caspase-1 activity assay (O'Brien et al., 2017) (Promega Caspase-Glo™ | Inflammasome Assay Kit G9951) was used to evaluate the inhibitory activity of SAH-POP1-4 and SAH-POP1-8 on inhibition of inflammasome formation and caspase-1 activation. Human THP-1 monocytes were differentiated with phorbol 12-myristate 13-acetate (PMA), and treated sequentially with lipopolysaccharide (LPS), a Toll-like receptor 4 (TLR4) agonist, and nigericin, a K^+ ionophore to promote K^+ efflux, resulting in NLRP3- and ASC-dependent caspase-1 activation. The cells were then treated with the inhibitors. […] Experimental Procedure for Promega caspase-Glo™ 1 Inflammasome Assay: THP1 cells were seeded at 5×10^5/ml in RPMI1640 medium with 10% FCS in 96-well plates and cultivated in the presence of 50 nM phorbol-12-myristate-13-acetate (PMA) for 24 h. Then the media was replaced with fresh media and incubated for 24 h. The cells were stimulated with 200 ng/ml LPS in E. coli (Sigma) for 3 h. The media was removed and replaced with serum-free media (OptiMEM) containing DMSO (1:1,000), 5 μM inhibitors for 30 min. Cells were then stimulated with the inflammasome activators: 5 μM nigericin 2 h. Control samples were incubated with medium lacking LPS or nigericin. Then the activity of the active caspase-1 was measured by Caspase-Glo™ 1 inflammasome assay (Promega). A cell-based bioluminescent caspase-1 activity assay (Promega Caspase-Glo™ 1 Inflammasome Assay Kit G9951) was used to evaluate the inhibitory activity of SAH-POP1-17 and SAH-POP1-18 on inhibition of inflammasome formation and caspase-1 activation. Human THP-1 monocytes were differentiated with phorbol 12-myristate 13-acetate (PMA), and treated sequentially with lipopolysaccharide (LPS), a Toll-like receptor 4 (TLR4) agonist, and nigericin, a K^+ ionophore to promote K^+ efflux, resulting in NLRP3- and ASC-dependent caspase-1 activation. The cells were then treated with the inhibitors. […] Experimental Procedure for Promega caspase-Glo™ 1 Inflammasome Assay: THP1 cells were seeded at 5×10^5/ml in RPMI1640 medium with 10% FCS in 96-well plates and cultivated in the presence of 50 nM phorbol-12-myristate-13-acetate (PMA) for 24 h. Then the media was replaced with fresh media and incubated for 24 h. The cells were stimulated with 200 ng/ml LPS in E. coli (Sigma) for 3 h. The media was removed and replaced with serum-free media (OptiMEM) containing DMSO (1:1,000), 5 μM inhibitors for 30 min. Cells were then stimulated with the inflammasome activators: 5 μM nigericin 2 h. Control samples were incubated with medium lacking LPS or nigericin. Then the activity of the active caspase-1 was measured by Caspase-Glo™ 1 inflammasome assay (Promega).

[3] = biological target: T1, GST-NLRP3^PYD (Homo sapiens, UniProt Q96P20); assay: KD (μM) | GST-NLRP3^PYD
T1 construct: human NLRP3 (residues 3-110) was cloned into a pET-21b vector; made in house; host or cells: E. coli BL21 DE3
Source text: Table printed on a drawing sheet, FIG. 10
Head of the field: KD (μM) | GST-NLRP3^PYD
The patent's description of the figure: FIG. 10 is a table showing the results from a fluorescence anisotropy binding assay to determine the accurate binding affinities of stapled peptides fPOP1-H2 (SEQ ID NO: 2), fSAH-POP1-1 (SEQ ID NO: 1), fSAH-POP1-3 (SEQ ID NO: 3), fSAH-POP1-4 (SEQ ID NO: 4), fSAH-POP1-5 (SEQ ID NO: 5), fSAH-POP1-6 (SEQ ID NO: 6), fSAH-POP1-7 (SEQ ID NO: 7), fSAH-POP1-8 (SEQ ID NO: 8), fSAH-POP1-9 (SEQ ID NO: 9), fSAH-POP1-10 (SEQ ID NO: 10), fSAH-POP1-11 (SEQ ID NO: 11), fSAH-POP1-12 (SEQ ID NO: 12), fSAH-POP1-13 (SEQ ID NO: 13), fSAH-POP1-14 (SEQ ID NO: 14), fSAH-POP1-15 (SEQ ID NO: 15), fSAH-POP1-16 (SEQ ID NO: 16), fSAH-POP1-17 (SEQ ID NO: 17), fSAH-POP1-18 (SEQ ID NO: 18), fSAH-POP1-19 (SEQ ID NO: 19), fSAH-POP1-20 (SEQ ID NO: 20), fSAH-POP1-21 (SEQ ID NO: 21), fSAH-POP1-22 (SEQ ID NO: 22), fSAH-POP1-23 (SEQ ID NO: 23), fSAH-POP1-24 (SEQ ID NO: 24), fSAH-POP1-25 (SEQ ID NO: 25), fSAH-POP1-26 (SEQ ID NO: 26), fSAH-POP1-27 (SEQ ID NO: 27), fSAH-POP1-28 (SEQ ID NO: 28), fSAH-POP1-29 (SEQ ID NO: 29), fSAH-POP1-30 (SEQ ID NO: 30), fSAH-POP1-31 (SEQ ID NO: 31).
First copying reader's note: In the structures S5, NL (N with lowered L) and NH2 carry lowered signs, a drawn bracket joins the two S5 residues (staple), and the SEQ ID NO column is printed outside the table frame. […]

[4] = test system: ASC speck formation in THP-1 ASC-GFP cells; assay: ASC speck assay, live-cell imaging; format: cell-based, Human; settings: 20 μM peptide; nigericin-activated THP-1 ASC-GFP cells
Protocol: ASC speck is a hallmark of inflammasome formation (Dick et al., 2016; Hoss et al., 2017) and observable by microscopy (Doyle et al., 2012; Stutz et al., 2013). THP-1 ASC-GFP cells stably expressing the ASC-GFP fusion protein (InvivoGen Catalog #: thp-ascgfp) were used to visualize the inhibitory effect of SAH-POP1-4 on ASC specks formation (Fernandes-Alnemri et al., 2007).
Experimental Procedure for ASC Speck Assay. THP1 ASC-GFP cells were seeded at 2×10^6/ml (0.7-1 mL) in RPMI1640 medium with 10% FCS in FluoroDish (FD35-100) and cultivated in the presence of 50 nM phorbol-12-myristate-13-acetate (PMA) for 24 h, then media was replaced by fresh media and incubated for 24 h. Then cells were stimulated with 200 ng/ml LPS from E. coli (sigma) for 3 h. The media was removed and replaced with serum-free medium (OptiMEM) containing DMSO (1:1,000), 20 μM inhibitors for 30 min. […] Control samples were incubated with media lacking LPS or nigericin. Then, ASC specks were tested by confocal microscopy SP8 (Leica Microsystems).
ASC speck is the hallmark of inflammasome formation and observable by microscopy. THP-1 ASC-GFP cells stably expressing the ASC-GFP fusion protein (InvivoGen Catalog #: thp-ascgfp) were used to visualize the inhibitory effect of SAH-POP1-17 on ASC specks formation (Fernandes-Alnemri et al., 2007). […] SAH-POP1-17 at 5 μM inhibited ASC speck formation to 4%, and SAH-POP1-18 at 5 μM inhibited ASC speck formation to 8%.

T1 sequence (Q96P20 3-110): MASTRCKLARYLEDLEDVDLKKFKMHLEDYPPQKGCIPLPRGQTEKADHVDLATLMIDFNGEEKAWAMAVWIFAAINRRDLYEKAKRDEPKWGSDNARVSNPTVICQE

cell permeability ([2]; THP-1 cells, inferred from caspase-1 assay)	Kd [3] [µM]	Compound	α-helical structure / α-helix contents by circular dichroism [1]	inhibited caspase-1 activities [2] [%]	inhibition of ASC speck formation [4]	cell permeability [2]
cell permeable	–	CCCC[C@H](NC(=O)[C@H](CCCCN)NC(=O)[C@]1(C)CCCC=CCCC[C@](C)(NC(=O)[C@@H](N)CCC(=O)O)C(=O)N[C@@H](CC(C)C)C(=O)N[C@@H](CCCCN)C(=O)N[C@@H](CCCCN)C(=O)N1)C(=O)N[C@@H](CCCCN)C(=O)N[C@@H](CC(C)C)C(=O)NCC(=O)N[C@H](C(=O)N[C@@H](C)C(N)=O)[C@@H](C)O [SAH-POP1-8] (H-E[S5]LKK[S5]K[Nle]KLGTA-NH2; staple 2-6; N-terminus assumed)	highest	41	–	–
–	27 ± 2.3	CCCC[C@H](NC(=O)[C@H](CCCCN)NC(=O)[C@H](Cc1ccccc1)NC(=O)[C@H](CCCCN)NC(=O)[C@H](CCCCN)NC(=O)[C@H](CC(C)C)NC(=O)[C@H](CCC(=O)O)NC(=O)[C@H](CCC(=O)O)NC(=O)CCNC(=S)Nc1ccc2c(c1)C(=O)OC21c2ccc(O)cc2Oc2cc(O)ccc21)C(=O)N[C@@H](CCCCN)C(=O)N[C@@H](CC(C)C)C(=O)NCC(=O)N[C@H](C(=O)N[C@H](C(N)=O)C(C)C)[C@@H](C)O [fPOP1-H2] ({FITC-βAla}-EELKKFK[Nle]KLGTV-NH2)	–	–	–	–
–	–	SAH-POP1-4: hydrocarbon stapled peptide, amino acid sequence ES5LKKS5KMKLGTV (E[S5]LKK[S5]KMKLGTV-NH2; staple 2-6; N-terminus assumed; SMILES CSCC[C@H](NC(=O)[C@H](CCCCN)NC(=O)[C@]1(C)CCCC=CCCC[C@](C)(NC(=O)[C@@H](N)CCC(=O)O)C(=O)N[C@@H](CC(C)C)C(=O)N[C@@H](CCCCN)C(=O)N[C@@H](CCCCN)C(=O)N1)C(=O)N[C@@H](CCCCN)C(=O)N[C@@H](CC(C)C)C(=O)NCC(=O)N[C@H](C(=O)N[C@H](C(N)=O)C(C)C)[C@@H](C)O)	highest	43	completely inhibited	cell permeable
